The results in this text go back to patent US10947566B1, “Hydrogen peroxide production method, system, and apparatus” (SOLUGEN, INC., priority 2015, dated 2021).

Structures are written as SMILES.

This test relates to NQO1. Kind of test: NQO1/NADH/NAC cell-free reaction in 96-well plate: oxygen consumption rate (Seahorse XF Analyzer) and hydrogen peroxide produced (absorption at 240 nm). The class given is biochemical. From the text: Referring now to FIG. 1C-1D, data graphs are provided illustrating the results of one sample experiment for hydrogen peroxide produced using the one or more embodiments of the present disclosure described herein. In particular, FIG. 1C illustrates the generation of superoxide radicals by using the Oxygen Consumption Rate (OCR) with respect to time as a proxy for one experiment. Here, the experiment comprised using a Seahorse Bioscience XF Analyzer® instrument to measure the OCR with respect to time. In addition, a 96-well plate was used wherein each well was filled with 140 microliters of 100 units of NQO1, NADH, 4 micromolar NAC (β-Lacaphone), 50 millimolar Tris-HCl at pH 7 wherein the solutions were kept at atmospheric temperature. […] Further, at the conclusion of this 7-hour period, approximately […] hydrogen peroxide was produced and measured. […] Specifically, referring to FIG. 1D, the hydrogen peroxide concentration was measured using a spectrophotometric absorption of 240 nm corresponding to hydrogen peroxide.

Regarding `CC1(C)CCC2=C(O1)c1ccccc1C(=O)C2=O` [β-lapachone], the “resulting hydrogen peroxide concentration” value (7-hour run cycle, spectrophotometric absorption 240 nm) is reported as > 30%. Moreover, the “Oxygen Consumption Rate (OCR) with respect to time, proxy for generation of superoxide radicals” value (100 units NQO1, NADH, 4 micromolar NAC, 50 millimolar Tris-HCl pH 7, atmospheric temperature, 7-hour period, measured every 2 minutes, versus DMSO vehicle control wells) was “dramatically increased and sustained OCR”. For the same compound, the “hydrogen peroxide produced and measured” value (at conclusion of 7-hour period, 100 units NQO1, NADH, 4 micromolar NAC, 50 millimolar Tris-HCl pH 7, spectrophotometric absorption 240 nm) is “approximately 12 molar”.
